Values of other authors as cited in patent publication US20210069214A1, “TOPICAL COMPOSITIONS COMPRISING A CORTICOSTEROID FOR THE TREATMENT OF PSORIASIS IN PEDIATRIC PATIENTS” (priority 2019, published 2021).

Tested on: HPA axis
Conditions: topical

dose that suppresses the HPA axis (as low as): 2 grams per day
SMILES: CCC(=O)O[C@]1(C(=O)CCl)[C@@H](C)C[C@H]2[C@@H]3CCC4=CC(=O)C=C[C@]4(C)[C@@]3(F)[C@@H](O)C[C@@]21C [Clobetasol propionate, [17-(2′-chloroacetyl)-9-fluoro-11-hydroxy-10,13,16-trimethyl-3-oxo-6,7,8,11,12,14,15,16-octahydrocyclopenta[a]phenanthren-17-yl]propanoate]
